Read-outs that look alike come from different tables or passages of the source.

Data set [1] is described as follows: Transport studies across Caco-2 monolayers (P app, efflux ratio). The format is in vitro ADME. The settings on record: human; for Papp A→B at 120 min, 500 μM / Papp B→A at 120 min, 500 μM: Caco-2 Model, 500 μM compound; for Papp A→B at 120 min, 500 μM: read-out: P app (apical to basolateral); for Papp B→A at 120 min, 500 μM: read-out: P app (basolateral to apical). The method, then:
Medium was replaced every 2-3 days. […] The vinblastine-selected Caco-2 cells were cultivated in the presence of 10 nM vinblastine to induce P-glycoprotein (P-gp) expression. […] Prior to the transport study, cytotoxicity of NGR1, GRg1, GRe, and Borneol toward Caco-2 cells was determined using MTT assays.
In transport studies, vinblastine-selected Caco-2 cells were seeded on polycarbonate filter of transwells for 18–21 days before starting transport study, and the monolayers with the transepithelial electrical resistance (TEER) values greater than 300 Ωcm^2 were used. Caco-2 monolayers were rinsed twice with Hanks' balanced salt solution (HBSS) and preincubated in HBSS at 37°C for 30 min before starting experiments. To start the experiments, 500 μM of NGR1, GRg1, and GRe in final concentrations were added to the donor side with or without 200 μM Borneol and then incubated at 37°C. […] After each sampling, 0.1 mL of HBSS was added to the receiver chamber to maintain a constant volume. All the experiments were performed five times in duplicate. The collected samples were stored at −20°C until HPLC analysis. During the above transport studies, the TEER values were also monitored before and at the end of each experiment. Apparent permeability coefficients (P app) were then calculated according to the following equation: (1) Papp=(dC/dt×V)/(A×C0), where dC/dt is the rate of the test compound appearing in the receiver chamber, V is the volume of the solution in the receiver chamber, A is the cell monolayer surface area, and C 0 is the initial concentration of the test compound added in the donor chamber.
The efflux ratio (Er) was calculated using the following equation: (2) Er=Papp(basolateral-apical)/Papp(apical-basolateral).

Data set [2] can be described thus: Stability in plasma samples and tissue homogenates of rabbits. The format is physicochemical. As for the experimental part:
The precision of the assay was determined for the quality control (QC) plasma and tissue […] Intraday precision and accuracy were determined via repeated analysis of the QC plasma and tissue samples within one day (n = 5). Interday precision and accuracy were determined via repeated analysis on five consecutive days. The concentration of each sample was determined using the prepared calibration curve and analyzed on the same day. All stabilities were evaluated at different concentration levels. Short-term stability of NGR1, GRg1, and GRe were assessed by analyzing QC samples kept at 4°C for 4–24 h. Freeze-thaw stability was evaluated at three consecutive freeze-thaw cycles. Long-term stability was studied by analyzing samples during a period of 8 weeks of storage at −70°C.
The stability studies were performed by evaluating small variations in three different conditions.

Setting [3] is: Caco-2, Caco-2 monolayers, read-out: efflux ratios (Er).
Where [4] appears, read: Caco-2, efflux ratio P app(basolateral-apical)/P app(apical-basolateral), with or without 200 μM Borneol (see label), read-out: E r.
Where [5] appears, read: with or without 200 μM Borneol (see label).

On to `CC(C)=CCC[C@](C)(O[C@@H]1O[C@H](CO)[C@@H](O)[C@H](O)[C@H]1O)[C@H]1CC[C@]2(C)[C@@H]1[C@H](O)C[C@@H]1[C@@]3(C)CC[C@H](O)C(C)(C)[C@@H]3[C@@H](O[C@@H]3O[C@H](CO)[C@@H](O)[C@H](O)[C@H]3O[C@@H]3O[C@@H](C)[C@H](O)[C@@H](O)[C@H]3O)C[C@]12C` [GRe, ginsenoside Re], for which the efflux ratio at 120 min, 500 μM in data set [1] (setting [3]) is 1 to 1.1; in data set [1] (setting [4]), 1.05. Moreover, in data set [1] (setting [5]), the Papp A→B at 120 min, 500 μM is 0.546 ± 0.04 ×10⁻⁶ cm/s. Moreover, in data set [1] (setting [5]), the Papp B→A at 120 min, 500 μM was 0.573 ± 0.037 ×10⁻⁶ cm/s.
For `CC(C)=CCC[C@](C)(O[C@@H]1O[C@H](CO)[C@@H](O)[C@H](O)[C@H]1O)[C@H]1CC[C@]2(C)[C@@H]1[C@H](O)C[C@@H]1[C@@]3(C)CC[C@H](O)C(C)(C)[C@@H]3[C@@H](O[C@@H]3O[C@H](CO)[C@@H](O)[C@H](O)[C@H]3O)C[C@]12C` [GRg1, ginsenoside Rg1], the efflux ratio at 120 min, 500 μM is 1 to 1.1 in data set [1] (setting [3]) and 1.05 in data set [1] (setting [4]). Besides, the Papp A→B at 120 min, 500 μM in data set [1] (setting [5]) amounted to 0.348 ± 0.042 ×10⁻⁶ cm/s. Also, the Papp B→A at 120 min, 500 μM in data set [1] (setting [5]) is 0.364 ± 0.029 ×10⁻⁶ cm/s. Further, the “Remaining, Short-term stability” value in data set [2] (kidney homogenate, QC 0.4 μg·mL^−1, 4°C for 4–24 h) was found to be 91.5 ± 6.5%; in data set [2] (kidney homogenate, QC 3.0 μg·mL^−1, 4°C for 4–24 h), 95.9 ± 4.5%; in data set [2] (kidney homogenate, QC 40.0 μg·mL^−1, 4°C for 4–24 h), 102.1 ± 5.7%. The “Remaining, Long-term stability” value in data set [2] (kidney homogenate, QC 0.4 μg·mL^−1, 8 weeks at −70°C) is reported as 90.8 ± 6.1%; in data set [2] (kidney homogenate, QC 3.0 μg·mL^−1, 8 weeks at −70°C), 91.6 ± 11.2%; in data set [2] (kidney homogenate, QC 40.0 μg·mL^−1, 8 weeks at −70°C) it was 95.7 ± 4.6%. The “Remaining, Freeze-thaw stability” value in data set [2] (kidney homogenate, QC 0.4 μg·mL^−1, three freeze-thaw cycles) came out at 90.5 ± 7.8%; in data set [2] (kidney homogenate, QC 3.0 μg·mL^−1, three freeze-thaw cycles), 94.7 ± 3.7%; in data set [2] (kidney homogenate, QC 40.0 μg·mL^−1, three freeze-thaw cycles) it was 91.2 ± 10.6%.
For the molecule `CC(C)=CCC[C@](C)(O[C@@H]1O[C@H](CO)[C@@H](O)[C@H](O)[C@H]1O)[C@H]1CC[C@]2(C)[C@@H]1[C@H](O)C[C@@H]1[C@@]3(C)CC[C@H](O)C(C)(C)[C@@H]3[C@@H](O[C@@H]3O[C@H](CO)[C@@H](O)[C@H](O)[C@H]3O[C@@H]3OC[C@@H](O)[C@H](O)[C@H]3O)C[C@]12C` [NGR1, notoginsenoside R1], the “Remaining, Short-term stability” value in data set [2] (brain homogenate, QC 0.5 μg·mL^−1, 4°C for 4–24 h) came to 92.3 ± 9.4%; in data set [2] (brain homogenate, QC 5.0 μg·mL^−1, 4°C for 4–24 h) it was 98.4 ± 4.4%; in data set [2] (brain homogenate, QC 50.0 μg·mL^−1, 4°C for 4–24 h), 103.5 ± 9.2%; in data set [2] (heart homogenate, QC 0.5 μg·mL^−1, 4°C for 4–24 h), 98.2 ± 6.7%; in data set [2] (heart homogenate, QC 5.0 μg·mL^−1, 4°C for 4–24 h) it was 94.8 ± 9.5%; in data set [2] (heart homogenate, QC 50.0 μg·mL^−1, 4°C for 4–24 h), 100.3 ± 7.5%. The “Remaining, Short-term stability” value in data set [2] (kidney homogenate, QC 0.5 μg·mL^−1, 4°C for 4–24 h) was 92.4 ± 4.3%; in data set [2] (kidney homogenate, QC 5.0 μg·mL^−1, 4°C for 4–24 h), 95.8 ± 5.6%; in data set [2] (kidney homogenate, QC 50.0 μg·mL^−1, 4°C for 4–24 h), 90.8 ± 3.7%; in data set [2] (liver homogenate, QC 0.5 μg·mL^−1, 4°C for 4–24 h) it was 95.1 ± 3.1%; in data set [2] (liver homogenate, QC 5.0 μg·mL^−1, 4°C for 4–24 h), 94.3 ± 6.7%; in data set [2] (liver homogenate, QC 50.0 μg·mL^−1, 4°C for 4–24 h) it was 95.4 ± 8.6%. Also, the “Remaining, Short-term stability” value in data set [2] (lung homogenate, QC 0.5 μg·mL^−1, 4°C for 4–24 h) turned out to be 91.2 ± 5.4%; in data set [2] (lung homogenate, QC 5.0 μg·mL^−1, 4°C for 4–24 h), 96.8 ± 8.3%; in data set [2] (lung homogenate, QC 50.0 μg·mL^−1, 4°C for 4–24 h), 95.6 ± 5.9%; in data set [2] (plasma, QC 0.5 μg·mL^−1, 4°C for 4–24 h), 98.0 ± 6.2%; in data set [2] (plasma, QC 5.0 μg·mL^−1, 4°C for 4–24 h), 96.0 ± 8.4%; in data set [2] (plasma, QC 35.0 μg·mL^−1, 4°C for 4–24 h), 99.8 ± 3.3%. Besides, the “Remaining, Long-term stability” value stood at 101.8 ± 6.8% in data set [2] (brain homogenate, QC 0.5 μg·mL^−1, 8 weeks at −70°C); 90.0 ± 9.5% in data set [2] (brain homogenate, QC 5.0 μg·mL^−1, 8 weeks at −70°C); 99.0 ± 5.3% in data set [2] (brain homogenate, QC 50.0 μg·mL^−1, 8 weeks at −70°C); 103.6 ± 6.5% in data set [2] (heart homogenate, QC 0.5 μg·mL^−1, 8 weeks at −70°C); 92.9 ± 4.2% in data set [2] (heart homogenate, QC 5.0 μg·mL^−1, 8 weeks at −70°C); 96.6 ± 6.7% in data set [2] (heart homogenate, QC 50.0 μg·mL^−1, 8 weeks at −70°C). Further, the “Remaining, Long-term stability” value in data set [2] (kidney homogenate, QC 0.5 μg·mL^−1, 8 weeks at −70°C) came to 91.1 ± 5.4%; in data set [2] (kidney homogenate, QC 5.0 μg·mL^−1, 8 weeks at −70°C), 94.3 ± 2.8%; in data set [2] (kidney homogenate, QC 50.0 μg·mL^−1, 8 weeks at −70°C) it was 96.8 ± 9.5%; in data set [2] (liver homogenate, QC 0.5 μg·mL^−1, 8 weeks at −70°C) it was 92.6 ± 9.1%; in data set [2] (liver homogenate, QC 5.0 μg·mL^−1, 8 weeks at −70°C), 96.6 ± 6.4%; in data set [2] (liver homogenate, QC 50.0 μg·mL^−1, 8 weeks at −70°C), 100.9 ± 5.6%. The “Remaining, Long-term stability” value in data set [2] (lung homogenate, QC 0.5 μg·mL^−1, 8 weeks at −70°C) amounted to 97.6 ± 6.8%; in data set [2] (lung homogenate, QC 5.0 μg·mL^−1, 8 weeks at −70°C) it was 89.8 ± 4.6%; in data set [2] (lung homogenate, QC 50.0 μg·mL^−1, 8 weeks at −70°C), 91.6 ± 9.8%; in data set [2] (plasma, QC 0.5 μg·mL^−1, 8 weeks at −70°C), 100.0 ± 8.7%; in data set [2] (plasma, QC 5.0 μg·mL^−1, 8 weeks at −70°C) it was 94.0 ± 6.8%; in data set [2] (plasma, QC 35.0 μg·mL^−1, 8 weeks at −70°C), 97.0 ± 5.3%. Moreover, the “Remaining, Freeze-thaw stability” value came to 92.8 ± 6.9% in data set [2] (brain homogenate, QC 0.5 μg·mL^−1, three freeze-thaw cycles); 92.2 ± 8.5% in data set [2] (brain homogenate, QC 5.0 μg·mL^−1, three freeze-thaw cycles); 95.2 ± 11.4% in data set [2] (brain homogenate, QC 50.0 μg·mL^−1, three freeze-thaw cycles); 92.8 ± 6.8% in data set [2] (heart homogenate, QC 0.5 μg·mL^−1, three freeze-thaw cycles); 102.5 ± 10.6% in data set [2] (heart homogenate, QC 5.0 μg·mL^−1, three freeze-thaw cycles); 96.7 ± 8.7% in data set [2] (heart homogenate, QC 50.0 μg·mL^−1, three freeze-thaw cycles). Also, the “Remaining, Freeze-thaw stability” value in data set [2] (kidney homogenate, QC 0.5 μg·mL^−1, three freeze-thaw cycles) turned out to be 92.2 ± 7.5%; in data set [2] (kidney homogenate, QC 5.0 μg·mL^−1, three freeze-thaw cycles), 95.4 ± 8.9%; in data set [2] (kidney homogenate, QC 50.0 μg·mL^−1, three freeze-thaw cycles) it was 80.9 ± 6.7%; in data set [2] (liver homogenate, QC 0.5 μg·mL^−1, three freeze-thaw cycles) it was 98.9 ± 7.9%; in data set [2] (liver homogenate, QC 5.0 μg·mL^−1, three freeze-thaw cycles), 103.8 ± 8.2%; in data set [2] (liver homogenate, QC 50.0 μg·mL^−1, three freeze-thaw cycles), 99.0 ± 5.0%. Also, the “Remaining, Freeze-thaw stability” value turned out to be 95.8 ± 9.8% in data set [2] (lung homogenate, QC 0.5 μg·mL^−1, three freeze-thaw cycles); 91.9 ± 9.3% in data set [2] (lung homogenate, QC 5.0 μg·mL^−1, three freeze-thaw cycles); 96.9 ± 7.5% in data set [2] (lung homogenate, QC 50.0 μg·mL^−1, three freeze-thaw cycles); 90.4 ± 5.9% in data set [2] (plasma, QC 0.5 μg·mL^−1, three freeze-thaw cycles); 92.8 ± 6.4% in data set [2] (plasma, QC 5.0 μg·mL^−1, three freeze-thaw cycles); 96.6 ± 5.5% in data set [2] (plasma, QC 35.0 μg·mL^−1, three freeze-thaw cycles).

The values above are taken from PMC3626250, “Effects of Borneol on Pharmacokinetics and Tissue Distribution of Notoginsenoside R1 and Ginsenosides Rg1 and Re in Panax notoginseng in Rabbits” (Journal of Analytical Methods in Chemistry, 2013).
